What was measured:
Conditions in all cases: preventive spray 24 h before inoculation
[1] = system: Botrytis cinerea; assay: In vivo test of activity on Botrytis cinerea on cucumber
Description: In Vivo Test of Activity on Botrytis cinerea on Cucumber
(§1) An aqueous solution of the active material to be tested is prepared at a concentration of 2 g/l by grinding in solution 1 or solution 2:
(§2) • Water • Tween 80 diluted to 10% in water: 5 μl/mg of active material • Clay in a sufficient amount for active material+clay to equal 100 mg; Solution 2
(§3) Concentrated solution containing surfactants and adjuvants conventionally used: 200 μl/mg of active material.
(§4) The aqueous solution is diluted with water so as to obtain the desired concentration.
Cucumbers of the Marketer variety are sown in a 50/50 pozzolan/peat substrate and maintained at 18-22° C. The treatment is carried out by spraying the aqueous suspension. The untreated control plants are sprayed with water.
24 hours after treatment, the plants are inoculated by spraying a solution of Botrytis cinerea spores (150 000 spores/ml) originating from a 15-day culture.
The cucumber plants are then maintained at 11-15° C. in a humid atmosphere. The effectiveness of the products is evaluated relative to the control plants after seven to eight days of incubation.
(§5) The effectiveness of the molecules is estimated, at 500 g/ha, 250 g/ha or 330 ppm, by the percentage of control relative to untreated plants. Under these conditions, good effectiveness is defined as more than 80% effectiveness. Average effectiveness is defined as an effectiveness between 50 and 80%. Poor effectiveness is defined as an effectiveness between 10 and 50% and zero effectiveness is defined as less than 10% effectiveness.

[2] = system: Pyrenophora teres; assay: In vivo test of activity on Pyrenophora teres (barley net blotch)
Description: In Vivo Test of Activity on Pyrenophora teres (Barley Net Blotch)
as §1, §2, §3, §4
Barley plants of the Express variety are sown in a 50/50 pozzolan/peat substrate and maintained at 12° C. The treatment is carried out at the 1-leaf stage (10 cm) by spraying the aqueous suspension. The untreated control plants are sprayed with water.
24 hours after treatment, the plants are inoculated by spraying a solution of Pyrenophora teres spores (10 000 spores/ml) originating from a 10-day culture.
The barley plants are then maintained at 18° C. in a humid atmosphere. The effectiveness of the products is evaluated relative to the control plants after eight to fifteen days of incubation.
as §5

[3] = system: Alternaria brassicae; assay: In vivo test of activity on Alternaria brassicae (crucifer black spot) on radish
Description: In Vivo Test of Activity on Alternaria brassicae (Crucifer Black Spot)
as §1, §2, §3, §4
Radishes of the Pernot variety are sown in a 50/50 pozzolan/peat substrate and maintained at 18-22° C. The treatment is carried out by spraying the aqueous suspension. The untreated control plants are sprayed with water. 24 hours after treatment, the plants are inoculated by spraying a solution of Alternaria brassicae spores (40 000 spores/ml) originating from a 12-day culture.
The radish plants are then maintained at 18-20° C. in a humid atmosphere. The effectiveness of the products is evaluated relative to the control plants after seven to eight days of incubation.
as §5

[4] = Botrytis cinerea, topical, 250 g/ha, read-out: effectiveness (percentage of control relative to untreated plants)

SMILES	pest or weed control at 250 g/ha [1, 4] [%]	effectiveness (percentage of control relative to untreated plants) ([1]; 330 ppm)	effectiveness (percentage of control relative to untreated plants) ([2]; 330 ppm)	effectiveness (percentage of control relative to untreated plants) ([3]; 330 ppm)	also measured
Cc1ccccc1C(=O)NCCc1ncc(C(F)(F)F)cc1Cl [Compound A-9]					effectiveness (percentage of control relative to untreated plants) ([1]; 500 g/ha): good to average; effectiveness (percentage of control relative to untreated plants) ([2]; 500 g/ha): good to average; effectiveness (percentage of control relative to untreated plants) ([3]; 500 g/ha): good to average
CCNC(=O)C(Cc1ncc(C(F)(F)F)cc1Cl)NC(=O)c1ccc(Cl)cc1 (stereo not shown) [compound 306, N-{1-ethylcarbamoyl-2-[3-chloro-5-(trifluoromethyl)-2-pyridinyl]ethyl}-4-chlorobenzamide, reference compound]	< 10				
O=C(NCCc1ncc(C(F)(F)F)cc1Cl)c1cc(F)ccc1C(F)(F)F [Compound A-172]		good to average			
O=C(NCCc1ncc(C(F)(F)F)cc1Cl)c1ccccc1Br [Compound A-46]		good to average	good to average	good to average	effectiveness (percentage of control relative to untreated plants) ([1]; 250 g/ha): good to average; effectiveness (percentage of control relative to untreated plants) ([2]; 250 g/ha): good to average; effectiveness (percentage of control relative to untreated plants) ([3]; 250 g/ha): good to average
CNC(=O)C(Cc1ncc(C(F)(F)F)cc1Cl)NC(=O)c1ccc(OC)cc1 (stereo not shown) [compound 315, N-{1-methylcarbamoyl-2-[3-chloro-5-(trifluoromethyl)-2-pyridinyl]ethyl}-4-methoxybenzamide, reference compound]	< 10				
O=C(NCCc1ncc(C(F)(F)F)cc1Cl)c1c(Cl)cccc1Cl [N-{2-[3-chloro-5-(trifluoromethyl)-2-pyridinyl]-ethyl}-2,6-dichlorobenzamide, reference compound]	< 10			poor (Poor effectiveness is defined as an effectiveness between 10 and 50%)	pest or weed control at 330 ppm ([1]; Botrytis cinerea, topical, 330 ppm, read-out: effectiveness (percentage of control relative to untreated plants)): < 10%; effectiveness (percentage of control relative to untreated plants) ([3]; 250 g/ha): zero (zero effectiveness is defined as less than 10% effectiveness)
O=C(NCCc1ncc(C(F)(F)F)cc1Cl)c1cc(F)ccc1Br [Compound A-175]		good to average		good to average	
N#Cc1ccccc1C(=O)NCCc1ncc(C(F)(F)F)cc1Cl [Compound A-170]		good to average		good to average	
O=C(NCCc1ncc(C(F)(F)F)cc1Cl)c1c(F)cccc1C(F)(F)F [Compound A-173]		good to average	good to average	good to average	effectiveness (percentage of control relative to untreated plants) ([3]; 250 g/ha): good to average
O=C(NCCc1ncc(C(F)(F)F)cc1Cl)c1c(F)cccc1I [Compound A-174]		good to average	good to average	good to average	
O=C(NCCc1ncc(C(F)(F)F)cc1Cl)c1ccccc1I [Compound A-45]		good to average	good to average	good to average	effectiveness (percentage of control relative to untreated plants) ([1]; 250 g/ha): good to average; effectiveness (percentage of control relative to untreated plants) ([2]; 250 g/ha): good to average; effectiveness (percentage of control relative to untreated plants) ([3]; 250 g/ha): good to average
COc1ccc(C(=O)NCCc2ncc(C(F)(F)F)cc2Cl)c(OC)c1 [Compound A-83]			good to average	good to average	
CCNC(=O)C(Cc1ncc(C(F)(F)F)cc1Cl)NC(=O)c1ccccc1 (stereo not shown) [compound 304, N-{1-ethylcarbamoyl-2-[3-chloro-5-(trifluoromethyl)-2-pyridinyl]ethyl}-benzamide, reference compound]	< 10				
Cc1cc(F)ccc1C(=O)NCCc1ncc(C(F)(F)F)cc1Cl [Compound A-117]			good to average	good to average	
CSc1cc(F)ccc1C(=O)NCCc1ncc(C(F)(F)F)cc1Cl [Compound A-140]			good to average	good to average	
CNC(=O)C(Cc1ncc(C(F)(F)F)cc1Cl)NC(=O)c1ccccc1 (stereo not shown) [compound 314, N-{1-methylcarbamoyl-2-[3-chloro-5-(trifluoromethyl)2-pyridinyl]ethyl}-benzamide, reference compound]	< 10				
CNC(=O)C(Cc1ncc(C(F)(F)F)cc1Cl)NC(=O)c1ccc(-c2ccccc2)cc1 (stereo not shown) [compound 316, N-{1-methylcarbamoyl-2-[3-chloro-5-(trifluoromethyl)-2-pyridinyl]ethyl}-4-phenylbenzamide, reference compound]	< 10				effectiveness (percentage of control relative to untreated plants) ([3]; 250 g/ha): poor (Poor effectiveness is defined as an effectiveness between 10 and 50%)
O=C(NCCc1ncc(C(F)(F)F)cc1Cl)c1ccccc1OC(F)(F)F [Compound A-89]			good to average	good to average	
CCNC(=O)C(Cc1ncc(C(F)(F)F)cc1Cl)NC(=O)c1ccccc1Br (stereo not shown) [compound 310, N-{1-ethylcarbamoyl-2-[3-chloro-5-(trifluoromethyl)-2-pyridinyl]ethyl}-2-bromobenzamide, reference compound]	< 10				
CCNC(=O)C(Cc1ncc(C(F)(F)F)cc1Cl)NC(=O)c1cccc([N+](=O)[O-])c1 (stereo not shown) [compound 307, N-{1-ethylcarbamoyl-2-[3-chloro-5-(trifluoromethyl)-2-pyridinyl]ethyl}-3-nitrobenzamide, reference compound]	< 10				effectiveness (percentage of control relative to untreated plants) ([3]; 250 g/ha): zero (zero effectiveness is defined as less than 10% effectiveness)
CS(=O)(=O)c1cc(Br)ccc1C(=O)NCCc1ncc(C(F)(F)F)cc1Cl [Compound A-133]			good to average	good to average	
O=C(NCCc1ncc(C(F)(F)F)cc1Cl)c1ccc([N+](=O)[O-])cc1Cl [Compound A-96]			good to average	good to average	
